In PubChem BioAssay AID328 (DTP/NCI, 2004):
Where “and” joins values, the source holds several entries; their conditions need not be identical. Equal entries are not always repeated. Toxic doses and inconclusive results are not listed.

Tested on: BDF1 mice, P388 leukemia ip, median survival T/C
Assay: NCI In Vivo Anticancer Drug Screen. Data for tumor model P388 Leukemia (intraperitoneal) in B6D2F1 (BDF1) mice
Conditions: endpoint: median survival time, higher = longer survival
Outline: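 Vehicle-dosed animals serve as the reference; survival of compound-dosed, tumour-implanted mice is divided by it.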

[1] = dose: 50.0 mg/kg/injection, schedule: Q04DX003 (ip), vehicle: Klucel (hydroxypropylcellulose) (HPC)
[2] = dose: 100.0 mg/kg/injection, schedule: Q04DX003 (ip), vehicle: Klucel (hydroxypropylcellulose) (HPC)
[3] = dose: 200.0 mg/kg/injection, schedule: Q01DX009 (ip), vehicle: saline with Tween-80
[4] = dose: 200.0 mg/kg/injection, schedule: Q04DX003 (ip), vehicle: Klucel (hydroxypropylcellulose) (HPC)

COc1ccc(C(C#N)N2CCCCC2)cc1 (configuration not stated)
T/C (dose: 12.5 mg/kg/injection, schedule: Q01DX009 (ip), vehicle: Klucel (hydroxypropylcellulose) (HPC)): 115 % of control
T/C (dose: 25.0 mg/kg/injection, schedule: Q01DX009 (ip), vehicle: Klucel (hydroxypropylcellulose) (HPC)): 100 % of control
T/C (dose: 25.0 mg/kg/injection, schedule: Q04DX003 (ip), vehicle: Klucel (hydroxypropylcellulose) (HPC)): 113 % of control
T/C (dose: 50.0 mg/kg/injection, schedule: Q01DX009 (ip), vehicle: Klucel (hydroxypropylcellulose) (HPC)): 100 % of control
T/C [1]: 100 % of control
T/C [2]: 100 % of control and 104 % of control

Cc1ccc2c(c1)C(=O)CC=C(C(=O)O)N2
T/C (dose: 100.0 mg/kg/injection, schedule: Q04DX003 (ip), vehicle: saline): 100 % of control
T/C [3]: 87 % of control
T/C (dose: 200.0 mg/kg/injection, schedule: Q04DX003 (ip), vehicle: saline): 110 % of control
T/C (dose: 400.0 mg/kg/injection, schedule: Q04DX003 (ip), vehicle: saline): 105 % of control

O=C(CS)CS
T/C (dose: 6.25 mg/kg/injection, schedule: Q01DX009 (ip), vehicle: water): 102 % of control
T/C (dose: 12.5 mg/kg/injection, schedule: Q01DX009 (ip), vehicle: water): 102 % of control
T/C (dose: 25.0 mg/kg/injection, schedule: Q01DX009 (ip), vehicle: water): 93 % of control
T/C (dose: 50.0 mg/kg/injection, schedule: Q01DX009 (ip), vehicle: water): 104 % of control

CC(=O)N1C=Cn2c(cnc2C)C1O (configuration not stated)
T/C (dose: 100.0 mg/kg/injection, schedule: Q04DX003 (ip), vehicle: water): 96 % of control
T/C (dose: 200.0 mg/kg/injection, schedule: Q04DX003 (ip), vehicle: water): 91 % of control
T/C (dose: 400.0 mg/kg/injection, schedule: Q04DX003 (ip), vehicle: water): 99 % of control

Cc1ccccc1C1c2ccccc2C(=O)c2cccc(C)c21 (configuration not stated)
T/C (dose: 100.0 mg/kg/injection, schedule: Q01DX001 (ip), vehicle: Klucel (hydroxypropylcellulose) (HPC)): 104 % of control
T/C (dose: 100.0 mg/kg/injection, schedule: Q01DX009 (ip), vehicle: Klucel (hydroxypropylcellulose) (HPC)): 105 % of control
T/C [2]: 100 % of control
T/C (dose: 200.0 mg/kg/injection, schedule: Q01DX001 (ip), vehicle: Klucel (hydroxypropylcellulose) (HPC)): 109 % of control
T/C (dose: 200.0 mg/kg/injection, schedule: Q01DX009 (ip), vehicle: Klucel (hydroxypropylcellulose) (HPC)): 100 % of control
T/C [4]: 95 % of control
T/C (dose: 400.0 mg/kg/injection, schedule: Q01DX001 (ip), vehicle: Klucel (hydroxypropylcellulose) (HPC)): 100 % of control
T/C (dose: 400.0 mg/kg/injection, schedule: Q01DX009 (ip), vehicle: Klucel (hydroxypropylcellulose) (HPC)): 100 % of control
T/C (dose: 400.0 mg/kg/injection, schedule: Q04DX003 (ip), vehicle: Klucel (hydroxypropylcellulose) (HPC)): 108 % of control

CC(=O)Oc1ccc[nH]c1=O
T/C (dose: 200.0 mg/kg/injection, schedule: Q01DX009 (ip), vehicle: saline): 100 % of control
T/C (dose: 264.0 mg/kg/injection, schedule: Q01DX009 (ip), vehicle: saline with Tween-80): 115 % of control
T/C (dose: 400.0 mg/kg/injection, schedule: Q01DX009 (ip), vehicle: saline): 150 % of control
T/C (dose: 600.0 mg/kg/injection, schedule: Q01DX009 (ip), vehicle: saline with Tween-80): 115 % of control
T/C (dose: 600.0 mg/kg/injection, schedule: Q01DX009 (ip), vehicle: saline): 95 % of control

COc1ccc2c(c1OC)C(=O)NC2=O
T/C (dose: 50.0 mg/kg/injection, schedule: Q01DX008 (ip), vehicle: Klucel (hydroxypropylcellulose) (HPC)): 108 % of control
T/C [1]: 100 % of control
T/C (dose: 100.0 mg/kg/injection, schedule: Q01DX008 (ip), vehicle: Klucel (hydroxypropylcellulose) (HPC)): 88 % of control
T/C [2]: 100 % of control
T/C [4]: 90 % of control

COC(=O)c1cc(Cl)ccc1OCC(=O)NCc1ccc(Cl)cc1
T/C (dose: 100.0 mg/kg/injection, schedule: Q01DX001 (ip), vehicle: saline with Tween-80): 100 % of control
T/C (dose: 200.0 mg/kg/injection, schedule: Q01DX001 (ip), vehicle: saline with Tween-80): 95 % of control
T/C (dose: 400.0 mg/kg/injection, schedule: Q01DX001 (ip), vehicle: saline with Tween-80): 90 % of control

C=CC(=O)NC(Cc1ccccc1)C(=O)O (configuration not stated)
T/C (dose: 50.0 mg/kg/injection, schedule: Q01DX009 (ip), vehicle: saline with Tween-80): 102 % of control
T/C (dose: 100.0 mg/kg/injection, schedule: Q01DX009 (ip), vehicle: saline with Tween-80): 98 % of control
T/C [3]: 99 % of control
